Measurements from the supplement of paper PMC8967900.

Experiments:
Assay in all cases: selective drug sensitivity score (sDSS, relative to normal bone marrow) (sDSS (score)); higher = more potent and effective on the cell line relative to normal bone marrow cells
Conditions in all cases: 72 h
RPMI-8402 = tested on: RPMI-8402
P12-ICHIKAWA = tested on: P12-ICHIKAWA
COG-LL-317 = tested on: COG-LL-317
DND-41 = tested on: DND-41
COG-LL-402h = tested on: COG-LL-402h
CCRF-HSB2 = tested on: CCRF-HSB2
MOLT-14 = tested on: MOLT-14
HAL-01 = tested on: HAL-01
KASUMI-9 = tested on: KASUMI-9
REH = tested on: REH
KOPN-8 = tested on: KOPN-8
KASUMI-10 = tested on: KASUMI-10
HPB-ALL = tested on: HPB-ALL
KASUMI-2 = tested on: KASUMI-2
TANOUE = tested on: TANOUE
MOLT-4 = tested on: MOLT-4
KARPAS-45 = tested on: KARPAS-45
SUP-B15 = tested on: SUP-B15
RCH-ACV = tested on: RCH-ACV
TMD5 = tested on: TMD5
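Further: ALL cell lines in 384-well plates, five doses spanning 10,000-fold, each plate scaled between vehicle and 100 µmol/L benzalkonium chloride controls, sDSS an adapted area-under-curve metric.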

For `COc1ccc(S(=O)(=O)Nc2cccnc2Nc2ccc(O)cc2)cc1` [ABT-751] (top concentration 10000 nM), the “selective drug sensitivity score” value (RPMI-8402) was 11.9, the “selective drug sensitivity score” value (P12-ICHIKAWA) was 10.4 and the “selective drug sensitivity score” value (COG-LL-317) was 11.4. For the same compound, the “selective drug sensitivity score” value (DND-41) was 6.12, the “selective drug sensitivity score” value (COG-LL-402h) was 8.92 and the “selective drug sensitivity score” value (CCRF-HSB2) was 13. For the same compound, the “selective drug sensitivity score” value (MOLT-14) was 11.9, the “selective drug sensitivity score” value (HAL-01) was 11.7 and the “selective drug sensitivity score” value (KASUMI-9) was 10.4. For the same compound, the “selective drug sensitivity score” value (REH) was 15.4, the “selective drug sensitivity score” value (KOPN-8) was 14.6 and the “selective drug sensitivity score” value (KASUMI-10) was 8.12. For the same compound, the “selective drug sensitivity score” value (HPB-ALL) was 13.2, the “selective drug sensitivity score” value (KASUMI-2) was 4.72 and the “selective drug sensitivity score” value (TANOUE) was -3.48. For the same compound, the “selective drug sensitivity score” value (MOLT-4) was 11.1, the “selective drug sensitivity score” value (KARPAS-45) was 12.2 and the “selective drug sensitivity score” value (SUP-B15) was 10.8. The “selective drug sensitivity score” value (RCH-ACV) was 11.7 and the “selective drug sensitivity score” value (TMD5) was 7.32.

`Nc1ncnc2c1nc(Cl)n2[C@@H]1O[C@H](CO)[C@@H](O)[C@H]1O` [8-chloro-adenosine] (top concentration 50000 nM) was tested, and the “selective drug sensitivity score” value (RPMI-8402) was -0.9, the “selective drug sensitivity score” value (P12-ICHIKAWA) was -2.4 and the “selective drug sensitivity score” value (COG-LL-317) was 6. For the same compound, the “selective drug sensitivity score” value (DND-41) was -3.9, the “selective drug sensitivity score” value (COG-LL-402h) was 3.1 and the “selective drug sensitivity score” value (CCRF-HSB2) was 3.6. The “selective drug sensitivity score” value (MOLT-14) was 0.3, the “selective drug sensitivity score” value (HAL-01) was -1.5 and the “selective drug sensitivity score” value (KASUMI-9) was 2.4. For the same compound, the “selective drug sensitivity score” value (REH) was -0.6, the “selective drug sensitivity score” value (KOPN-8) was 5.9 and the “selective drug sensitivity score” value (KASUMI-10) was 7.5. The “selective drug sensitivity score” value (HPB-ALL) was -4.8, the “selective drug sensitivity score” value (KASUMI-2) was -1.8 and the “selective drug sensitivity score” value (TANOUE) was -5.3. The “selective drug sensitivity score” value (MOLT-4) was 3.3, the “selective drug sensitivity score” value (KARPAS-45) was 1.8 and the “selective drug sensitivity score” value (SUP-B15) was 7.3. The “selective drug sensitivity score” value (RCH-ACV) was 1.4 and the “selective drug sensitivity score” value (TMD5) was -2.1.

For `C[C@]1(c2nc3c(C(N)=O)cccc3[nH]2)CCCN1` [Veliparib] (top concentration 10000 nM), the “selective drug sensitivity score” value (RPMI-8402) was -3.88, the “selective drug sensitivity score” value (P12-ICHIKAWA) was -4.18 and the “selective drug sensitivity score” value (COG-LL-317) was 1.72. The “selective drug sensitivity score” value (DND-41) was -4.18, the “selective drug sensitivity score” value (COG-LL-402h) was -3.48 and the “selective drug sensitivity score” value (CCRF-HSB2) was -2.18. The “selective drug sensitivity score” value (MOLT-14) was 0.22, the “selective drug sensitivity score” value (HAL-01) was 1.02 and the “selective drug sensitivity score” value (KASUMI-9) was 1.72. For the same compound, the “selective drug sensitivity score” value (REH) was -4.18, the “selective drug sensitivity score” value (KOPN-8) was 5.52 and the “selective drug sensitivity score” value (KASUMI-10) was -1.08. For the same compound, the “selective drug sensitivity score” value (HPB-ALL) was -0.28, the “selective drug sensitivity score” value (KASUMI-2) was 2.82 and the “selective drug sensitivity score” value (TANOUE) was -4.18. For the same compound, the “selective drug sensitivity score” value (MOLT-4) was -2.88, the “selective drug sensitivity score” value (KARPAS-45) was -4.18 and the “selective drug sensitivity score” value (SUP-B15) was -1.08. For the same compound, the “selective drug sensitivity score” value (RCH-ACV) was -2.58 and the “selective drug sensitivity score” value (TMD5) was -4.18.

In the case of `CC(C)NC(=O)COc1cccc(-c2nc(Nc3ccc4[nH]ncc4c3)c3ccccc3n2)c1` [KD025] (top concentration 5000 nM), the “selective drug sensitivity score” value (RPMI-8402) is reported as -2.36, the “selective drug sensitivity score” value (P12-ICHIKAWA) is reported as -4.06 and the “selective drug sensitivity score” value (COG-LL-317) is reported as -5.36. The “selective drug sensitivity score” value (DND-41) was -5.36, the “selective drug sensitivity score” value (COG-LL-402h) was -5.36 and the “selective drug sensitivity score” value (CCRF-HSB2) was -3.86. The “selective drug sensitivity score” value (MOLT-14) was -3.36, the “selective drug sensitivity score” value (HAL-01) was -3.26 and the “selective drug sensitivity score” value (KASUMI-9) was 4.04. For the same compound, the “selective drug sensitivity score” value (REH) was -5.36, the “selective drug sensitivity score” value (KOPN-8) was 0.74 and the “selective drug sensitivity score” value (KASUMI-10) was -5.36. The “selective drug sensitivity score” value (HPB-ALL) was -3.26, the “selective drug sensitivity score” value (KASUMI-2) was -5.06 and the “selective drug sensitivity score” value (TANOUE) was -5.36. For the same compound, the “selective drug sensitivity score” value (MOLT-4) was -2.76, the “selective drug sensitivity score” value (KARPAS-45) was -2.76 and the “selective drug sensitivity score” value (SUP-B15) was 2.14. The “selective drug sensitivity score” value (RCH-ACV) was -2.16 and the “selective drug sensitivity score” value (TMD5) was -3.16.

For `CCc1cnn2c(NCc3ccc[n+]([O-])c3)cc(N3CCCC[C@H]3CCO)nc12` [Dinaciclib] (top concentration 1000 nM), the “selective drug sensitivity score” value (RPMI-8402) was -2.64, the “selective drug sensitivity score” value (P12-ICHIKAWA) was -6.44 and the “selective drug sensitivity score” value (COG-LL-317) was 1.26. The “selective drug sensitivity score” value (DND-41) was -0.14, the “selective drug sensitivity score” value (COG-LL-402h) was 2.86 and the “selective drug sensitivity score” value (CCRF-HSB2) was -2.74. For the same compound, the “selective drug sensitivity score” value (MOLT-14) was -3.24, the “selective drug sensitivity score” value (HAL-01) was -5.74 and the “selective drug sensitivity score” value (KASUMI-9) was 1.26. The “selective drug sensitivity score” value (REH) was -5.84, the “selective drug sensitivity score” value (KOPN-8) was -6.34 and the “selective drug sensitivity score” value (KASUMI-10) was -2.24. The “selective drug sensitivity score” value (HPB-ALL) was -4.34, the “selective drug sensitivity score” value (KASUMI-2) was -7.74 and the “selective drug sensitivity score” value (TANOUE) was -14.3. The “selective drug sensitivity score” value (MOLT-4) was -5.84, the “selective drug sensitivity score” value (KARPAS-45) was -0.34 and the “selective drug sensitivity score” value (SUP-B15) was -3.64. For the same compound, the “selective drug sensitivity score” value (RCH-ACV) was -0.64 and the “selective drug sensitivity score” value (TMD5) was -10.8.

In the case of `CNCc1ccc(-c2[nH]c3cc(F)cc4c3c2CCNC4=O)cc1` [Rucaparib] (top concentration 10000 nM), the “selective drug sensitivity score” value (RPMI-8402) is reported as 0.32, the “selective drug sensitivity score” value (P12-ICHIKAWA) is reported as -0.58 and the “selective drug sensitivity score” value (COG-LL-317) is reported as 6.52. The “selective drug sensitivity score” value (DND-41) was -0.38, the “selective drug sensitivity score” value (COG-LL-402h) was 2.42 and the “selective drug sensitivity score” value (CCRF-HSB2) was 1.22. For the same compound, the “selective drug sensitivity score” value (MOLT-14) was 1.62, the “selective drug sensitivity score” value (HAL-01) was 4.32 and the “selective drug sensitivity score” value (KASUMI-9) was 2.72. For the same compound, the “selective drug sensitivity score” value (REH) was 1.52, the “selective drug sensitivity score” value (KOPN-8) was 5.12 and the “selective drug sensitivity score” value (KASUMI-10) was 1.12. For the same compound, the “selective drug sensitivity score” value (HPB-ALL) was -0.58, the “selective drug sensitivity score” value (KASUMI-2) was 3.02 and the “selective drug sensitivity score” value (TANOUE) was -0.58. For the same compound, the “selective drug sensitivity score” value (MOLT-4) was -0.58, the “selective drug sensitivity score” value (KARPAS-45) was 0.72 and the “selective drug sensitivity score” value (SUP-B15) was 5.42. The “selective drug sensitivity score” value (RCH-ACV) was 1.02 and the “selective drug sensitivity score” value (TMD5) was -0.38.

In the case of `Cn1c(Nc2ccc(C(F)(F)F)cc2)nc2cc(Oc3ccnc(-c4ncc(C(F)(F)F)[nH]4)c3)ccc21` [NVP-RAF265] (top concentration 1000 nM), the “selective drug sensitivity score” value (RPMI-8402) is reported as 0.98, the “selective drug sensitivity score” value (P12-ICHIKAWA) is reported as 2.58 and the “selective drug sensitivity score” value (COG-LL-317) is reported as 7.28. For the same compound, the “selective drug sensitivity score” value (DND-41) was 3.58, the “selective drug sensitivity score” value (COG-LL-402h) was 5.98 and the “selective drug sensitivity score” value (CCRF-HSB2) was 5.98. For the same compound, the “selective drug sensitivity score” value (MOLT-14) was 6.38, the “selective drug sensitivity score” value (HAL-01) was 5.68 and the “selective drug sensitivity score” value (KASUMI-9) was 4.48. For the same compound, the “selective drug sensitivity score” value (REH) was 2.18, the “selective drug sensitivity score” value (KOPN-8) was 4.18 and the “selective drug sensitivity score” value (KASUMI-10) was 6.08. For the same compound, the “selective drug sensitivity score” value (HPB-ALL) was 0.08, the “selective drug sensitivity score” value (KASUMI-2) was -0.22 and the “selective drug sensitivity score” value (TANOUE) was 0.68. For the same compound, the “selective drug sensitivity score” value (MOLT-4) was 3.48, the “selective drug sensitivity score” value (KARPAS-45) was 7.68 and the “selective drug sensitivity score” value (SUP-B15) was 7.78. The “selective drug sensitivity score” value (RCH-ACV) was 6.68 and the “selective drug sensitivity score” value (TMD5) was 6.28.
